In ChEMBL document CHEMBL4507268 (2021):
Activity calls are given as the source filed them.

Key:
[1] = target: SRSF protein kinase 1 (Homo sapiens) (UniProt Q96SB4); details: Compound concentration 1000.0 nM
[2] = target: T1, Serine/threonine-protein kinase D1 (Homo sapiens) (UniProt Q15139); details: Compound concentration 1000.0 nM
T1 sequence (whole entry): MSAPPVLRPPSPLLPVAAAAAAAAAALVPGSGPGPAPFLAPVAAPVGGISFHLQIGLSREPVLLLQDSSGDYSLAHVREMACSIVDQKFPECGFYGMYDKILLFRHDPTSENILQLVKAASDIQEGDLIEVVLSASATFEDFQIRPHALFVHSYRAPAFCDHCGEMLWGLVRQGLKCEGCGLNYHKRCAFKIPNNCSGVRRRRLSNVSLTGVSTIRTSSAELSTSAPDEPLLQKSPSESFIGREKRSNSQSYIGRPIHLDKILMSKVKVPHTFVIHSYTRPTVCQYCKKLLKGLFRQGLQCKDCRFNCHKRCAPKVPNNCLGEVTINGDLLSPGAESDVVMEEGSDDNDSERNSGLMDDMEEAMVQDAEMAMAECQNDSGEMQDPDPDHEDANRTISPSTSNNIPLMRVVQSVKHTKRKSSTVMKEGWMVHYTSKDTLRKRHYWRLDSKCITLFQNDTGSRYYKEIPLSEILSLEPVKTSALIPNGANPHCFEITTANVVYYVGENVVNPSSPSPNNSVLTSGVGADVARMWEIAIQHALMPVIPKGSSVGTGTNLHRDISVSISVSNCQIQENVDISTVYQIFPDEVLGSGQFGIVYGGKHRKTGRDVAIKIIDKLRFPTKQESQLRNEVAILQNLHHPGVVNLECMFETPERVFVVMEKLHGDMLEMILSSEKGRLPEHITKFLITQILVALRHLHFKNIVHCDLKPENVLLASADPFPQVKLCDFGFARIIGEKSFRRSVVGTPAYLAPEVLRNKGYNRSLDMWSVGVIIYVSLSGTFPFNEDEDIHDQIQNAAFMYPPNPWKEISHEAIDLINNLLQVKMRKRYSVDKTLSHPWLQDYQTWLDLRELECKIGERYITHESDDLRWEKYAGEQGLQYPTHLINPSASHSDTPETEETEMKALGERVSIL

[3] = target: Dual specificity protein kinase CLK3 (Homo sapiens) (UniProt P49761); details: Compound concentration 1000.0 nM
[4] = target: Calcium/calmodulin-dependent protein kinase type 1B (Homo sapiens) (UniProt Q6P2M8); details: Compound concentration 1000.0 nM
[5] = target: Receptor-interacting serine/threonine-protein kinase 4 (Homo sapiens) (UniProt P57078); details: Compound concentration 1000.0 nM
[6] = target: Solute carrier family 2, facilitated glucose transporter member 1 (Homo sapiens, UniProt P11166); assay: Cellular mechanistic assay: Inhibition of glucose uptake by Hela-MaTu cells
[7] = target: Mitogen-activated protein kinase 8 (Homo sapiens) (UniProt P45983); details: Compound concentration 1000.0 nM
[8] = target: T2, Mitogen-activated protein kinase kinase kinase 7 (Homo sapiens) (UniProt O43318); details: Compound concentration 1000.0 nM
T2 sequence (whole entry): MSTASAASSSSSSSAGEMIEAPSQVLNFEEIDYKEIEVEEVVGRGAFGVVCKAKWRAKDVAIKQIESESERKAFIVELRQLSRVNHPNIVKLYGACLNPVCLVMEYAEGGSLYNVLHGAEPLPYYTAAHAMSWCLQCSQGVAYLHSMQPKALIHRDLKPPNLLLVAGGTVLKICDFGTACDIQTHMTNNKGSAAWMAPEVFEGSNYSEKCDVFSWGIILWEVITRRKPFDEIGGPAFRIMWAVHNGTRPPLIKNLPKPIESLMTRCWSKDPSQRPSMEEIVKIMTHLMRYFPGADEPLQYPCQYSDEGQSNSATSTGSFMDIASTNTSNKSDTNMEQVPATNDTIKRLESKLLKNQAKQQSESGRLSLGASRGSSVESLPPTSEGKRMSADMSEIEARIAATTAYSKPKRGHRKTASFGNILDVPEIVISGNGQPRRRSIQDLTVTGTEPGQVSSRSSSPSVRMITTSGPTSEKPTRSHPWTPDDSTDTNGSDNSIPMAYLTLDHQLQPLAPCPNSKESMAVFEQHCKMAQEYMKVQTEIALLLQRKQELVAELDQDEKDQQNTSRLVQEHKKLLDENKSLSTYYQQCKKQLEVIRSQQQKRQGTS

[9] = tested on: Receptor-type tyrosine-protein kinase FLT3 (Homo sapiens), P36888 [D835Y]; details: Compound concentration 1000.0 nM
[10] = target: Mitogen-activated protein kinase 14 (Homo sapiens) (UniProt Q16539); details: Compound concentration 1000.0 nM
[11] = target: Hepatocyte growth factor receptor (Homo sapiens) (UniProt P08581); details: Compound concentration 1000.0 nM
[12] = target: Serine/threonine-protein kinase PLK1 (Homo sapiens) (UniProt P53350); details: Compound concentration 1000.0 nM
[13] = target: T3, Serine/threonine-protein kinase 4 (Homo sapiens) (UniProt Q13043); details: Compound concentration 1000.0 nM
T3 sequence (whole entry): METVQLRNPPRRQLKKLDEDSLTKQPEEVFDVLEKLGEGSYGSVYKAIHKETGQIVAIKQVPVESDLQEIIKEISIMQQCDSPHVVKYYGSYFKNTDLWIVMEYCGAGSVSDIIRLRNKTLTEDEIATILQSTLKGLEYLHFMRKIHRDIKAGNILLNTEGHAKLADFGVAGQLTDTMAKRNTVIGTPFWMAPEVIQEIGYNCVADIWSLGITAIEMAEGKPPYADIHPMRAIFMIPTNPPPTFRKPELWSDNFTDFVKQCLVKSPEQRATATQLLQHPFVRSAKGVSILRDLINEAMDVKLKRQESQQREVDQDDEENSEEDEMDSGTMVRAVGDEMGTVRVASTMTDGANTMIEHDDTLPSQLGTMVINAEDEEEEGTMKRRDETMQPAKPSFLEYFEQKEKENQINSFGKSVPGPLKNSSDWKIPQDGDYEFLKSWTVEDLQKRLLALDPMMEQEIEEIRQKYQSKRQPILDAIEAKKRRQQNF

[14] = target: RAF proto-oncogene serine/threonine-protein kinase (Homo sapiens) (UniProt P04049); details: Compound concentration 1000.0 nM
[15] = target: RAC-alpha serine/threonine-protein kinase (Homo sapiens) (UniProt P31749); details: Compound concentration 1000.0 nM
[16] = target: Mitogen-activated protein kinase kinase kinase 13 (Homo sapiens) (UniProt O43283); details: Compound concentration 1000.0 nM
[17] = target: Casein kinase I isoform gamma-1 (Homo sapiens) (UniProt Q9HCP0); details: Compound concentration 1000.0 nM
[18] = tested on: Phosphatidylinositol 4,5-bisphosphate 3-kinase catalytic subunit alpha isoform (Homo sapiens), P42336 [E545K]; details: Compound concentration 1000.0 nM
Sequence of Phosphatidylinositol 4,5-bisphosphate 3-kinase catalytic subunit alpha isoform (Homo sapiens), P42336 [E545K] (P42336 whole entry E545K, canonical isoform): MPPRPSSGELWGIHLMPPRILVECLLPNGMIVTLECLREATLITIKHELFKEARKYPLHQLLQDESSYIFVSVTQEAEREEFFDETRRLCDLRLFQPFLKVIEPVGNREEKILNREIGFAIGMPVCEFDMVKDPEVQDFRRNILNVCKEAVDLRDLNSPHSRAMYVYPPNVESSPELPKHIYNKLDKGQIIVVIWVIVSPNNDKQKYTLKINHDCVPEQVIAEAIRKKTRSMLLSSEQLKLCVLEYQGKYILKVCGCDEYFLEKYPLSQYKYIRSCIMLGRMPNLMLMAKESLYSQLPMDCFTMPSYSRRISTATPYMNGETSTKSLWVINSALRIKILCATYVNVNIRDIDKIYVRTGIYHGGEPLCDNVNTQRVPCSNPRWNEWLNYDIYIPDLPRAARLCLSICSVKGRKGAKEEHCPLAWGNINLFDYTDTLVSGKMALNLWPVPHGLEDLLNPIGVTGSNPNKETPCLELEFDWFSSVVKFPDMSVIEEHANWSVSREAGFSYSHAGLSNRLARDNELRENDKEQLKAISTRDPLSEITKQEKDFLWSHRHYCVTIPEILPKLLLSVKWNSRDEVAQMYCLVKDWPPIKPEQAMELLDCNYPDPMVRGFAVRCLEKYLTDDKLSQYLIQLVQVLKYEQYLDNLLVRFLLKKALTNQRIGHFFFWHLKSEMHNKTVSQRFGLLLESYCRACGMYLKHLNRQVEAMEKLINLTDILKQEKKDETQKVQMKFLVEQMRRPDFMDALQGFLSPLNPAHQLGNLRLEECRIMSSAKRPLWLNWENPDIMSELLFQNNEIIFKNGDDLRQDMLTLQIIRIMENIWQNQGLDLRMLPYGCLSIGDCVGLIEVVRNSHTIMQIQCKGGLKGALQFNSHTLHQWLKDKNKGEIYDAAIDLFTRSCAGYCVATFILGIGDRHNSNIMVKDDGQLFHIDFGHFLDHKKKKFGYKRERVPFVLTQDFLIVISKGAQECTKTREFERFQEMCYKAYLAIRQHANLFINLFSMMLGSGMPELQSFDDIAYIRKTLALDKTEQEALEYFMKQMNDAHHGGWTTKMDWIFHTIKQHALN

Sequence of Mitogen-activated protein kinase 14 (Homo sapiens) (Q16539 whole entry): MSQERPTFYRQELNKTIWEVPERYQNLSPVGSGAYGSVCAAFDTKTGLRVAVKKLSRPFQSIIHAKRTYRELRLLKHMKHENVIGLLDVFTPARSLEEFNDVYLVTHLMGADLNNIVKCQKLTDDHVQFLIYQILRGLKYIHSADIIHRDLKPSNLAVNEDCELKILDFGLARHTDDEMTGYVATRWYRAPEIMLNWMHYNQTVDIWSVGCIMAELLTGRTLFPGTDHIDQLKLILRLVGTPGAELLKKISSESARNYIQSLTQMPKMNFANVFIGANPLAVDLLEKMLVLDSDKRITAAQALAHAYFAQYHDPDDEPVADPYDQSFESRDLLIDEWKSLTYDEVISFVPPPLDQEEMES
Sequence of Receptor-interacting serine/threonine-protein kinase 4 (Homo sapiens) (P57078 whole entry): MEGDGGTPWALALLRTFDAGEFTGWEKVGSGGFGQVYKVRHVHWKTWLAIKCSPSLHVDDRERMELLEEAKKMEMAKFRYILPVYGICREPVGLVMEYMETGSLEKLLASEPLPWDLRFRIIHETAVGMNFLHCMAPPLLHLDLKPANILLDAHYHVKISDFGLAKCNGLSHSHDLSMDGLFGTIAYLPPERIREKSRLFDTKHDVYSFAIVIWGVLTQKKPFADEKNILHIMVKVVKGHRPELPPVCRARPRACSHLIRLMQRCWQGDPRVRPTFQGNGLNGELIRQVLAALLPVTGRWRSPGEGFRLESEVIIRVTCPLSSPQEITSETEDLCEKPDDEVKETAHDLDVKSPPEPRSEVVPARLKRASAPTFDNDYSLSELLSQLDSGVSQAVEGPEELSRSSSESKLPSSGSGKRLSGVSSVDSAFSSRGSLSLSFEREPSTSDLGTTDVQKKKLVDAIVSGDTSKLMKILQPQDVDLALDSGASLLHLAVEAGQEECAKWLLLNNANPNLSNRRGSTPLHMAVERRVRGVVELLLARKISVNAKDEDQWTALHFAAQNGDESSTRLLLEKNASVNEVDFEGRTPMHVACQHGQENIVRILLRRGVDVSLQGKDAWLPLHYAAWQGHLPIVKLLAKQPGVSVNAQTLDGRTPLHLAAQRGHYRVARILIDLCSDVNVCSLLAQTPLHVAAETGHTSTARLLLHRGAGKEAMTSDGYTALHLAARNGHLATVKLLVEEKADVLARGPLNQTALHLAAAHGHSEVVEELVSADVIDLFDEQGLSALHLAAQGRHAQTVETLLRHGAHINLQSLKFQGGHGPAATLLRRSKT
Sequence of Casein kinase I isoform gamma-1 (Homo sapiens) (Q9HCP0 whole entry, looked up, canonical isoform): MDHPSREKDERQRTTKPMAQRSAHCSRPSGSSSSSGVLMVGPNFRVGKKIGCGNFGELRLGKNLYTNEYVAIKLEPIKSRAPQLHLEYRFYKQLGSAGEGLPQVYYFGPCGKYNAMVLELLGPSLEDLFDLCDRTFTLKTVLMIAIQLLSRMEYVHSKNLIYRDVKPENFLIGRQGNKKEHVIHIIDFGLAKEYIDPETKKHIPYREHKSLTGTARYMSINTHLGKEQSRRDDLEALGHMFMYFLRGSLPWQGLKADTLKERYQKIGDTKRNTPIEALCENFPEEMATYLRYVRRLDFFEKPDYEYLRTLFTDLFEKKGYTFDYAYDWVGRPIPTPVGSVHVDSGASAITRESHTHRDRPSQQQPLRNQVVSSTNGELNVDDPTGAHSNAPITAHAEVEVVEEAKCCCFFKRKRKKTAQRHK
Sequence of Hepatocyte growth factor receptor (Homo sapiens) (P08581 whole entry): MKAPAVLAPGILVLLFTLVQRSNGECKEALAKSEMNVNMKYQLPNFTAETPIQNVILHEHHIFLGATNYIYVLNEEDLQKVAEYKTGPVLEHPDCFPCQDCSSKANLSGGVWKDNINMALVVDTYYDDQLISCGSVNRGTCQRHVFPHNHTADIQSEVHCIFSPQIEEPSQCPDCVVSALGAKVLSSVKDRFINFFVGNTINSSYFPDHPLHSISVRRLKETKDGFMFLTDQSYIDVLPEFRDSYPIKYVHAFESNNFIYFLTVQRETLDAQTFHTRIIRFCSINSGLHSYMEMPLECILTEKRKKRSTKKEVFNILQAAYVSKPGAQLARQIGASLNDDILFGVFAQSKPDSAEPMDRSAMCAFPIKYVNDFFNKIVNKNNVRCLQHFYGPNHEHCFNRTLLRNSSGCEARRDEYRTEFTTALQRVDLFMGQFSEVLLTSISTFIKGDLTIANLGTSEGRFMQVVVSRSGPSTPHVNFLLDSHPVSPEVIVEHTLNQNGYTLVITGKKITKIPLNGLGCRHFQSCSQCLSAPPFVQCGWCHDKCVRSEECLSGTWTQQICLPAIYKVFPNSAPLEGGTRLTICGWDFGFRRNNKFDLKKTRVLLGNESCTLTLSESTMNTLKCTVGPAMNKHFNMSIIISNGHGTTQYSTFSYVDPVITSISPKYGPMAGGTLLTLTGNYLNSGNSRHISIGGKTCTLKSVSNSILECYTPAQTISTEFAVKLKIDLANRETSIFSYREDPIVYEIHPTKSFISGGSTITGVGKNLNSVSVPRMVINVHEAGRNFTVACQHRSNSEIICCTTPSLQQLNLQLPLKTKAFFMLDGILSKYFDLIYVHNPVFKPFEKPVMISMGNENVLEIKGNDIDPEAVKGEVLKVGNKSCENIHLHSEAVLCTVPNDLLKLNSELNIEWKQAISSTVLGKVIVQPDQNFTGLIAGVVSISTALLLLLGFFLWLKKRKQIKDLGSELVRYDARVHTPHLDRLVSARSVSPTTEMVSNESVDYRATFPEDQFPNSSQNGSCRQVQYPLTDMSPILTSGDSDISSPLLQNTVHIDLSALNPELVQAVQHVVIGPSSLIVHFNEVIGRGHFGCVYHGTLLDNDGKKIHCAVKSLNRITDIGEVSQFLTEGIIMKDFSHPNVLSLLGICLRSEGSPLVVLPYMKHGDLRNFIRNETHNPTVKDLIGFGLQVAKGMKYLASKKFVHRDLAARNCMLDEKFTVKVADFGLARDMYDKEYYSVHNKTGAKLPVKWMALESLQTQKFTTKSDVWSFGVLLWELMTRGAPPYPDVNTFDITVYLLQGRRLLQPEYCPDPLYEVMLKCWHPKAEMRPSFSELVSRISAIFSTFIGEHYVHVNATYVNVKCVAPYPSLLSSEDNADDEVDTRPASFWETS
Sequence of Mitogen-activated protein kinase 8 (Homo sapiens) (P45983 whole entry): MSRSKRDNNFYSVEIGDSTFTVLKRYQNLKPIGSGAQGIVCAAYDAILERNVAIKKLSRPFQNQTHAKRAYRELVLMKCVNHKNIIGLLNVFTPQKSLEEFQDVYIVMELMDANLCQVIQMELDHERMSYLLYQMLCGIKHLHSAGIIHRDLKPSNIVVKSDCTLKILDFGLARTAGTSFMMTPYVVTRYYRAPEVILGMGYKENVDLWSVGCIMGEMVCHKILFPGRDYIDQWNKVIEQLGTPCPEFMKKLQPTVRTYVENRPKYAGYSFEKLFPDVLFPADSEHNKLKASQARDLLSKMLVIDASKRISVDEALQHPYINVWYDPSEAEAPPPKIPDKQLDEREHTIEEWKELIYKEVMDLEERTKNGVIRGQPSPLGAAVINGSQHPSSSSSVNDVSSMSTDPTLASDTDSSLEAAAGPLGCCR
Sequence of RAC-alpha serine/threonine-protein kinase (Homo sapiens) (P31749 whole entry): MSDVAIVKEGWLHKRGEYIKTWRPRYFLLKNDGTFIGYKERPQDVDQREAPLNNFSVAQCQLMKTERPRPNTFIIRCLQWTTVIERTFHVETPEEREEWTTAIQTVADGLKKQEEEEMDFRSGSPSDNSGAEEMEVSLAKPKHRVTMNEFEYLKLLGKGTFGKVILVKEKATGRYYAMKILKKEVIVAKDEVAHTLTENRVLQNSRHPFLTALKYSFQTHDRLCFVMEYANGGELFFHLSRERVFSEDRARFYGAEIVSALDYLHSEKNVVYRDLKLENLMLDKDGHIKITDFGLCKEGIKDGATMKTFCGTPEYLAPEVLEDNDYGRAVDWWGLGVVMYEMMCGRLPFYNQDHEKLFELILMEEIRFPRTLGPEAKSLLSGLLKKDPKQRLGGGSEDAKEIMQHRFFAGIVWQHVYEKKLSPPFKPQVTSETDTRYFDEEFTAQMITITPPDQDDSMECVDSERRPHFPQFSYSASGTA

Cc1nc(C2CCN(C(=O)c3ccc(OC(F)(F)F)cc3N)CC2)c2ncc(N3CCN(C)CC3)cc2n1 [BAY-693]
inactive: residual activity [1] 79% | residual activity [2] 79% | residual activity [3] 94% | residual activity [4] 100% | residual activity [5] 84% | residual activity [7] 98% | residual activity [8] 100% | residual activity [9] 97% | residual activity [10] 100% | residual activity [11] 94% | residual activity [12] 79% | residual activity [13] 85% | residual activity [14] 77% | residual activity [15] 100% | residual activity [16] 100% | residual activity [17] 100% | residual activity [18] 85%
6.4 µM (not active): IC50 [6]

CN1CCN(c2cnc3c(C4CCN(C(=O)c5ccc(OC(F)(F)F)cc5N)CC4)ncnc3c2)CC1 [BAY-885]
active: IC50 [6] 0.035 µM
inactive: residual activity [1] 88% | residual activity [2] 85% | residual activity [3] 100% | residual activity [4] 100% | residual activity [5] 100% | residual activity [7] 97% | residual activity [8] 100% | residual activity [9] 100% | residual activity [10] 99% | residual activity [11] 69% | residual activity [12] 93% | residual activity [13] 84% | residual activity [14] 75% | residual activity [15] 100% | residual activity [16] 100% | residual activity [17] 100% | residual activity [18] 100%
